Source: patent EP0403366A2, “Cyclomalto-oligosaccharide derivatives and processes for their preparation” (priority 1989, dated 1990)
In brackets after ≈: the same amount, converted by molar mass.

Key:
[1] = Apparent stability constant of inclusion complexes; details: in words, complexes with the new derivatives compared with the corresponding cyclomaltoheptaose (CG₇) complexes
[2] = physchem; details: water
[3] = Solubility in water; details: in words, compared with cyclomaltoheptaose (CG₇)
[4] = Solubility of apolar solutes in aqueous cyclomalto-oligosaccharide solutions (inclusion complexes); assay type: physicochemical

| Structure (SMILES) | constantes de stabilité apparente des complexes [1] | solubility [2] [mg/mL] | solubilité dans l'eau [3] | further results |
| --- | --- | --- | --- | --- |
| Oc1ccc2ccccc2c1 [2-naphtol] | ne sont pas notablement modifiées |  |  |  |
| OC[C@H]1O[C@H](SC[C@H]2O[C@@H]3O[C@H]4[C@H](O)[C@@H](O)[C@@H](O[C@H]5[C@H](O)[C@@H](O)[C@@H](O[C@H]6[C@H](O)[C@@H](O)[C@@H](O[C@H]7[C@H](O)[C@@H](O)[C@@H](O[C@H]8[C@H](O)[C@@H](O)[C@@H](O[C@H]9[C@H](O)[C@@H](O)[C@@H](O[C@H]2[C@H](O)[C@H]3O)O[C@@H]9CO)O[C@@H]8CO)O[C@@H]7CO)O[C@@H]6CO)O[C@@H]5CO)O[C@@H]4CO)[C@H](O)[C@@H](O)[C@@H]1O [Composé 1, 6-S-alpha-D-glucopyranosyl-6-thio-cyclomaltoheptaose] |  | 430 (≈ 327 mM) | améliorée par rapport à celle du CG₇ |  |
| OC[C@H]1O[C@@H](SC[C@H]2O[C@@H]3O[C@H]4[C@H](O)[C@@H](O)[C@@H](O[C@H]5[C@H](O)[C@@H](O)[C@@H](O[C@H]6[C@H](O)[C@@H](O)[C@@H](O[C@H]7[C@H](O)[C@@H](O)[C@@H](O[C@H]8[C@H](O)[C@@H](O)[C@@H](O[C@H]9[C@H](O)[C@@H](O)[C@@H](O[C@H]2[C@H](O)[C@H]3O)O[C@@H]9CO)O[C@@H]8CO)O[C@@H]7CO)O[C@@H]6CO)O[C@@H]5CO)O[C@@H]4CO)[C@H](O)[C@@H](O)[C@@H]1O [Composé 2, 6-S-bêta-D-glucopyranosyl-6-thio-cyclomaltoheptaose] |  | 30 (≈ 22.8 mM) | très améliorée par rapport à celle du cyclomaltoheptaose |  |
| C[C@]12CCC(=O)C=C1CC[C@@H]1[C@@H]2[C@@H](O)C[C@@]2(C)[C@H]1CC[C@]2(O)C(=O)CO [Hydrocortisone] | ne sont pas notablement modifiées |  |  |  |
| Cc1cccc(N(C)C(=S)Oc2ccc3ccccc3c2)c1 [Tolnaftate, O-2-Naphtyl-méthyl-(3-méthylphényl)-carbomothioate] |  | 0.012 (≈ 0.039 mM) |  | Solubilité ([4]; Solution aqueuse à 1,7.10^-2 mol/l de CG7): 840 µg/mL; Solubilité ([4]; Solution aqueuse à 3,10^-2mol/l de composé n°1): 52 690 µg/ml; Solubilité ([4]; Solution aqueuse à 3,10^-2 mol/l de composé n° 2): 37 090 µg/ml |
